The results in this text go back to patent US20250325699A1, “POLYPEPTIDES AND METHODS OF USE” (Aldevron, LLC, priority 2022, published 2025).

The test system of the assay is HepG2 cells. Put plainly: In vitro transfection of HepG2 cells, normalized luciferase activity. The note with it: 48 hours. Type of assay: cell-based. How it is done: FIGS. 4A and 4B are graphs showing normalized luciferase activity in HepG2 cells 48 hours after in vitro transfection. Lipid nanoparticles were formed with RALA-NLS polypeptides and 250 ng or 500 ng C3-fLuc1157 DNA at a molar ratio of 700, 1400, 2100, or 2800. […]
FIGS. 4A and 4B are graphs showing normalized luciferase activity in HepG2 cells 48 hours after in vitro transfection. Lipid nanoparticles were formed with RALA-NLS polypeptides and 250 ng or 500 ng C^3-fLuc1157 DNA at a molar ratio of 700, 1400, 2100, or 2800.

As for “WEARLARALARALARHLARALARALRACEAPKKKRKV [RALA-NLS]”, the “transfection efficiency in slightly cationic LNPs (20% DOTAP)” value (FIG. 4B (20% DOTAP) versus FIG. 4A (DOPE)) is recorded as “more pronounced”. Besides, the “transfection with higher amounts of DNA (500 ng) as compared to lower amounts (250 ng)” value (FIGS. 4A and 4B) was “more efficient transfection”. For the same sequence, the “transfection improvement compared to LNP without polypeptide” value (LNP with 700× polypeptide (molar ratio to C^3-fLuc1157 DNA)) is given as approximately 20 fold, the “transfection improvement compared to LNP without polypeptide” value (LNP with 1400× polypeptide (molar ratio to C^3-fLuc1157 DNA)) was approximately 35 fold, the “transfection improvement compared to LNP without polypeptide” value (LNP with 2100× polypeptide (molar ratio to C^3-fLuc1157 DNA)) is approximately 50 fold and the “transfection improvement compared to LNP without polypeptide” value (LNP with 2800× polypeptide (molar ratio to C^3-fLuc1157 DNA)) is reported as approximately 65 fold.
